The text below walks through data of patent publication US12241902B2, “Probes for detection of copper” (The Regents of the University of California, priority 2019, dated 2025).

A short description of assay [1]: Metal ion selectivity of the ratiometric fluorescence change. The procedure: (A) Changes in corrected emission spectra of FCP-1 (5 μM) in aqueous buffer solution. […] (B) Corrected emission spectra of FCP-1 measured at various concentrations. […] (D) Changes in F526/F576 ratio of FCP-1 (5 μM) towards various biologically relevant metal ions, as well as cobalt(II)-containing vitamin B12. Black bars represent the ratiometric emission response observed upon addition of competing metal ions (1 mM for Na^+, K^+, Mg^2+ and Ca^2+, and 10 μM for all the other d-block metal ions as well vitamin B12) after 15 min. Red bars represent the ratiometric emission response upon subsequent addition of 10 μM of Cu(I) after 15 min. (E) Emission spectra and (F) F526/F576 emission ratio of FCP-1 (5 μM) with addition of Cu(II) (10 μM), Cu(II) (10 μM)+GSH (2 mM), or Cu(I) (10 μM)+GSH (2 mM) after 15 min. All spectra were acquired in aqueous buffer (PBS with 2 mM GSH and 40 vol % PEG-400) with λex=458 nm.
UV-vis absorption and emission measurements. FCP-1 stock solution in DMSO (5 mM) was prepared, aliquoted and stored at […]. For each spectroscopic measurement, a fresh aliquot was diluted to 500 μM by DMSO and further diluted with PBS containing 2 mM GSH/PEG-400 mixture (3:2, v/v) to prepare the sensing solution with 5 μM of FCP-1. The sensing solution was pre-incubated in a water bath at 37° C., and then [Cu(CH3CN)](PF6) in MeCN or other metal ions in H2O was added. The solution mixture was kept at 37° C. and taken out for UV-vis absorption or emission spectroscopic measurements in quartz cuvette at predetermined time intervals. Emission spectra were corrected using coumarin 153 as secondary emission standard (4). Photoluminescence quantum yield (PLQY) was determined using fluorescein in 0.1 M NaOH solution (0.95; λex=496 nm). FRET efficiency from the fluorescein moiety to rhodamine moiety of FCP-1 was estimated by [1−(PLQY of FCP-1/PLQY of FL-TPA)].
This oxidation state-specificity is important for the applications of FCP-1 in imaging dynamic changes in intracellular labile Cu(I) pools under redox stress and oncogenic transformation.

The test system of assay [2] is labile Cu(I) pools in HeLa cells. The experiment in a line: Ratiometric confocal fluorescence imaging of labile Cu(I) in HeLa cells under redox stress. To be noted: FCP-1 5 μM. It counts as cell-based, Human. On the procedure: Confocal fluorescence microscopy images of HeLa cells pretreated with (A) solvent control, CuCl2 (200 or 300 μM), or BCS (100 μM) in complete medium for 18 h, or (B) solvent control, ascorbate (1 mM), or BSO (1 mM) in complete medium for 4 h. The cells were then washed with PBS, incubated with FCP-1 (5 μM) in DPBS for 45 min and imaged with λex=458 nm. The bar charts show average cellular ratiometric FCP-1 emission, Fgreen/Forange, determined from experiments performed in triplicate. (C) Total cellular ^63Cu levels were determined by ICP-MS experiments (with normalization of different cell numbers by total cellular ^31P level). […]
Confocal fluorescence microscopy imaging. For confocal fluorescence imaging experiments of HEK293T, MEF Ctr1^+/+ and Ctr1^−/− and HeLa cells, the cells were plated on 8-well Lab Tek borosilicate chambered coverglass slides (Nunc), and allowed to grow to ca. 60% confluency before performing the cell imaging experiments. […] For quantification, a threshold value was set as background and the average intensity of the whole image was measured by ImageJ. […]
In view of the oxidation state-specificity of FCP-1 toward Cu(I), the impact of cellular redox status on labile Cu(I) pools was examined First, the ability of FCP-1 to detect changes in labile Cu(I) levels in HeLa cells with CuCl2 and BCS treatments was evaluated (FIG. 16A). […]

With `CC[N+](CC)=c1ccc2c(-c3ccccc3C(=O)O)c3ccc(N4CCN(Cc5cccc(CN(Cc6ccccn6)Cc6cccc(COc7ccc8c(-c9ccccc9C(=O)OC)c9ccc(=O)cc-9oc8c7)n6)n5)CC4)cc3oc-2c1` [FCP-1], the “change in ratiometric signal with cobalamin (vitamin B12)” value in assay [1] (10 μM cobalamin) was “no significant changes in ratiometric signal”. The “selectivity of ratiometric fluorescence change” value in assay [1] (1 mM Na+, K+, Mg2+, Ca2+, 10 μM d-block metal ions, 15 min) is “selective toward Cu(I) over other biologically relevant metal ions”. Moreover, the “change of fluorescence with free Co(II)” value in assay [1] (Co(II) 10 μM) was “altered FCP-1 fluorescence modestly”. Further, in assay [1] (solutions containing other biologically relevant metal ions, then 10 μM Cu(I)), the “detection of Cu(I) in competitive experiments” value is listed as “ability of FCP-1 to detect Cu(I)”. In addition, the “Fgreen/Forange ratio in BSO-treated cells compared to control” value in assay [2] (BSO 1 mM 4 h) is recorded as “higher”. Further, the “Fgreen/Forange ratio in ascorbate-treated cells compared to control” value in assay [2] (ascorbate 1 mM 4 h) was “statistically significant increase”.
